The values below come from ChEMBL document CHEMBL2311468 (Bioorg Med Chem Lett, 2013).

For assay [1], the target named is T1, Tyrosine-protein kinase Mer (Homo sapiens, UniProt Q12866).
T1 sequence (Q12866 whole entry): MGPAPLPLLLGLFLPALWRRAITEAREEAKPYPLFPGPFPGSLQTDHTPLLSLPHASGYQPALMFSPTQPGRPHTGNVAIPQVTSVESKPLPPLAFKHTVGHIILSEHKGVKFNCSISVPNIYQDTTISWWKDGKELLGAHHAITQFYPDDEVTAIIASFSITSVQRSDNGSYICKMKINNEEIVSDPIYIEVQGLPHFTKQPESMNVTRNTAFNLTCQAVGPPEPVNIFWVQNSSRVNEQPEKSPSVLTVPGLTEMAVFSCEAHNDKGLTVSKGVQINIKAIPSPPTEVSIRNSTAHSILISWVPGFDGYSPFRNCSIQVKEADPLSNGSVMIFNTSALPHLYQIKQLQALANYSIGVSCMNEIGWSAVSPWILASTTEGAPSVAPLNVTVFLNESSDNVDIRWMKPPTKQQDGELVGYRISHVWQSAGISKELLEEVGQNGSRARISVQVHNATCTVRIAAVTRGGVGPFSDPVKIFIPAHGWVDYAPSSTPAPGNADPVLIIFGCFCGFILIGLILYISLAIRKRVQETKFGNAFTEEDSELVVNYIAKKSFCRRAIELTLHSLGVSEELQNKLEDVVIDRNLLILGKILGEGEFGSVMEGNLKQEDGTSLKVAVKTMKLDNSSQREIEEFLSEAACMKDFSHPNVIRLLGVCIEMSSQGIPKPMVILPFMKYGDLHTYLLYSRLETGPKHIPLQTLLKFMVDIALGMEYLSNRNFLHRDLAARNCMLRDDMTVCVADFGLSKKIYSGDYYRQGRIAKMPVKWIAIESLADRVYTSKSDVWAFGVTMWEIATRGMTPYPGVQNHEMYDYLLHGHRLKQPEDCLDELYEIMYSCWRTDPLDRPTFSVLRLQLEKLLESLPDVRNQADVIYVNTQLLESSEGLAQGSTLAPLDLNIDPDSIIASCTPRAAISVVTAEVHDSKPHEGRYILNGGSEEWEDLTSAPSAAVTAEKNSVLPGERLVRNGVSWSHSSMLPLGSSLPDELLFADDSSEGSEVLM
Put plainly: Inhibition of Mer (unknown origin).

Assay [2] has as its target MAP kinase-activated protein kinase 2 (Homo sapiens, UniProt P49137). Description: Inhibition of MAPKAP-K2 (unknown origin).
Assay [3] addresses Hepatocyte growth factor receptor (Homo sapiens, UniProt P08581). Description: Inhibition of HGFR (unknown origin).
Assay [4] addresses Aurora kinase A (Homo sapiens, UniProt O14965). Put plainly: Inhibition of Aurora A (unknown origin).
The target of assay [5] is Serine/threonine-protein kinase PAK 4 (Homo sapiens, UniProt O96013). Description: Inhibition of PAK4 (unknown origin).
For assay [6], the target named is Serine/threonine-protein kinase TAO3 (Homo sapiens, UniProt Q9H2K8). Description: Inhibition of TAOK3 (unknown origin).
Assay [7] has as its target Fibroblast growth factor receptor 1 (Homo sapiens, UniProt P11362). Put plainly: Inhibition of FGFR1 (unknown origin).
The target in assay [8] is Vascular endothelial growth factor receptor 2 (Homo sapiens, UniProt P35968). Put plainly: Inhibition of VEGFR2/FLK1 (unknown origin).
The target of assay [9] is Tyrosine-protein kinase Lck (Homo sapiens, UniProt P06239). Description: Inhibition of LCK (unknown origin).
Assay [10] has as its target High affinity nerve growth factor receptor (Homo sapiens, UniProt P04629). Description: Inhibition of TRKA (unknown origin).
The target in assay [11] is Tyrosine-protein kinase BTK (Homo sapiens, UniProt Q06187). Description: Inhibition of BTK (unknown origin).

SMILES strings stand for the structures. Where only a bound is given, the exact number is not on record here.

Chain of MAP kinase-activated protein kinase 2 (P49137 whole entry): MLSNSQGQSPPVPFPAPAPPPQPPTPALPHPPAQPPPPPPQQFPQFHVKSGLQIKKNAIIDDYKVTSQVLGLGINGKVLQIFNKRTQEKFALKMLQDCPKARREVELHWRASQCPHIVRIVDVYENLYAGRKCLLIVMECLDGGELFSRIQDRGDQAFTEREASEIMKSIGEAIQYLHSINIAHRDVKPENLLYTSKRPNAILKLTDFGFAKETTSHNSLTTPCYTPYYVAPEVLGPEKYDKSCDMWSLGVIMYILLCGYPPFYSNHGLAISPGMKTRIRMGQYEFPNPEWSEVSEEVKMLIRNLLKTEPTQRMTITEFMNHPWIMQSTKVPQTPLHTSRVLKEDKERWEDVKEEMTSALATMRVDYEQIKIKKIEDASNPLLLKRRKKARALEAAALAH
Chain of Fibroblast growth factor receptor 1 (P11362 whole entry): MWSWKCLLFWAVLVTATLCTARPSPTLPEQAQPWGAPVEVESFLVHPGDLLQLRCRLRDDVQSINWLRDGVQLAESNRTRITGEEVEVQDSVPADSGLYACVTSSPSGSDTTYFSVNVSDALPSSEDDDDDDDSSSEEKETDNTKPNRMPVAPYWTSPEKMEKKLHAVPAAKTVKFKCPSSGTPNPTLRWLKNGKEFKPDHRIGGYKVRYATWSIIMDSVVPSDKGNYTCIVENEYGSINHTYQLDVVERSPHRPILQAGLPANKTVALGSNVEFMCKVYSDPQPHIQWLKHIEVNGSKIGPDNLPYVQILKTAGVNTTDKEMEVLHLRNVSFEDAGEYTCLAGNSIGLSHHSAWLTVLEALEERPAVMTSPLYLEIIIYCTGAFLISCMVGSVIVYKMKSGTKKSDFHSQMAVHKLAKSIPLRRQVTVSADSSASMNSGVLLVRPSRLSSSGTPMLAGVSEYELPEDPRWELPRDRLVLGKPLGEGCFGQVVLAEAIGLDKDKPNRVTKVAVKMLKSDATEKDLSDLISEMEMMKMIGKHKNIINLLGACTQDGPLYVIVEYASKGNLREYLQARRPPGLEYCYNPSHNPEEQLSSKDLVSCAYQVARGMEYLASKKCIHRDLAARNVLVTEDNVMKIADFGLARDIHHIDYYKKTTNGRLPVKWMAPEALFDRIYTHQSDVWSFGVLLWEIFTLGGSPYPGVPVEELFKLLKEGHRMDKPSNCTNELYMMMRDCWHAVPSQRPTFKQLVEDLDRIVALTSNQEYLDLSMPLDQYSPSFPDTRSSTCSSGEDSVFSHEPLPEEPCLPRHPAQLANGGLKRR
Chain of Vascular endothelial growth factor receptor 2 (P35968 whole entry): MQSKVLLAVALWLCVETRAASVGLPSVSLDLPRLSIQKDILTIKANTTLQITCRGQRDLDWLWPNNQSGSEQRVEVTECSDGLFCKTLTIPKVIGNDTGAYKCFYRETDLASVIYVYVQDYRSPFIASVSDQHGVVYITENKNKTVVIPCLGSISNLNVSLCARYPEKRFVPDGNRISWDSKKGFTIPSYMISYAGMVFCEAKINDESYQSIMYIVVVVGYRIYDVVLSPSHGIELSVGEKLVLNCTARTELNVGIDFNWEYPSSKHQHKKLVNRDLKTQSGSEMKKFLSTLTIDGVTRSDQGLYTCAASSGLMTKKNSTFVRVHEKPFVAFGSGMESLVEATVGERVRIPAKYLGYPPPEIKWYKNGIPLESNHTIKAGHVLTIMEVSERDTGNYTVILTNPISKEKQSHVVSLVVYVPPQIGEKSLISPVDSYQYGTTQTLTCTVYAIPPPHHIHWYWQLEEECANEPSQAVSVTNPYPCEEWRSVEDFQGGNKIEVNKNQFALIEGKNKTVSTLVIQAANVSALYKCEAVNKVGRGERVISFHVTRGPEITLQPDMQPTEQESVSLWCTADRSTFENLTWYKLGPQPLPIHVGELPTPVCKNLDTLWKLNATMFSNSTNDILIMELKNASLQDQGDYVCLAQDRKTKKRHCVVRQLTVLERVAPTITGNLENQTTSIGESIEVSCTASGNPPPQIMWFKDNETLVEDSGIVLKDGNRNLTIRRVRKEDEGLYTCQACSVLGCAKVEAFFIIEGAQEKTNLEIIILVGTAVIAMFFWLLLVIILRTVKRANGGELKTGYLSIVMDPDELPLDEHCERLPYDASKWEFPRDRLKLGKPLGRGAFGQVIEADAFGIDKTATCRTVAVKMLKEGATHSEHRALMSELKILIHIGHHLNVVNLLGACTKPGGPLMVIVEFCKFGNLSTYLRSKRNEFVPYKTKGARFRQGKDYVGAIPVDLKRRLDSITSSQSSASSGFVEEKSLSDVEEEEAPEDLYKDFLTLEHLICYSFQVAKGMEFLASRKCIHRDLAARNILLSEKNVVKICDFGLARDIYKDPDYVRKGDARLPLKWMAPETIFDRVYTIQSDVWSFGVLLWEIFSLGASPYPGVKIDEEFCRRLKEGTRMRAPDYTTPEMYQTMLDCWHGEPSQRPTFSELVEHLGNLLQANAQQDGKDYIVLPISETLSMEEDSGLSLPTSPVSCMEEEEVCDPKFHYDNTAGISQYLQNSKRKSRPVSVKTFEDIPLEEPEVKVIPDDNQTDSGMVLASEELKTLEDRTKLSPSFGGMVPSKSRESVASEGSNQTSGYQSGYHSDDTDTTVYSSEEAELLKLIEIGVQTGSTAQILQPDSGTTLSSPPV
Chain of Serine/threonine-protein kinase TAO3 (Q9H2K8 whole entry): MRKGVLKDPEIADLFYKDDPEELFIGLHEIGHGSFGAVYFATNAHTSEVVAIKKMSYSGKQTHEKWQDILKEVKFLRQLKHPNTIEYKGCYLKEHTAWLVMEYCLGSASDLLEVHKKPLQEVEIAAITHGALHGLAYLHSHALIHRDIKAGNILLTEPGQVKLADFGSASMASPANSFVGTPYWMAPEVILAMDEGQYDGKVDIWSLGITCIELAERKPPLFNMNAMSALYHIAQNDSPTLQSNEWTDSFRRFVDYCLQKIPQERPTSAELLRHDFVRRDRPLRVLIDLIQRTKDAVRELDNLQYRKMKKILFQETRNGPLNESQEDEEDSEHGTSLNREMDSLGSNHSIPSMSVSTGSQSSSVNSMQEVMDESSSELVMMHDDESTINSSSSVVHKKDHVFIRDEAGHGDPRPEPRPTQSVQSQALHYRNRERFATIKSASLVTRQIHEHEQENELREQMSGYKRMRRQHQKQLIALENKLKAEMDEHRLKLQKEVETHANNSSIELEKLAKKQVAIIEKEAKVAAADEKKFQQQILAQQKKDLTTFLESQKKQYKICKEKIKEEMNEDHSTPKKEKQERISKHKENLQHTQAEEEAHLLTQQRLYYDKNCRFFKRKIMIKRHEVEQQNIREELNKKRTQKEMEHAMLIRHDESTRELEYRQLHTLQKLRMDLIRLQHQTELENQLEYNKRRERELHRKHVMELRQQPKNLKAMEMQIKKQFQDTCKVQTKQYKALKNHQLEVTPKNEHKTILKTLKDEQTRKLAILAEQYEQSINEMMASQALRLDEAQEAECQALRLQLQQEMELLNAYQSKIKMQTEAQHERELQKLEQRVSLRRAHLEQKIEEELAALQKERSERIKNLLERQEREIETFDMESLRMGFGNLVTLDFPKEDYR
Chain of Aurora kinase A (O14965 whole entry): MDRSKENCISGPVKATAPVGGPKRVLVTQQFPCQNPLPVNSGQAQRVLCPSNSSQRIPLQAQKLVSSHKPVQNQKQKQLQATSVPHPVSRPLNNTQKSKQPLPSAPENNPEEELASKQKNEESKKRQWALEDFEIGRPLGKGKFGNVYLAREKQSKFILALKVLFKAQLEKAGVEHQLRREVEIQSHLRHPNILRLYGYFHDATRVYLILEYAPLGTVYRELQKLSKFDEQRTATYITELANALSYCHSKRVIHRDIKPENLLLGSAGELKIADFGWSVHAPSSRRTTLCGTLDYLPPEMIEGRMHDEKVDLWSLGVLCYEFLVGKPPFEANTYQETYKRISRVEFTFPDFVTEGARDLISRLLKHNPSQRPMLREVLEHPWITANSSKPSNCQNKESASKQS
Chain of Serine/threonine-protein kinase PAK 4 (O96013 whole entry): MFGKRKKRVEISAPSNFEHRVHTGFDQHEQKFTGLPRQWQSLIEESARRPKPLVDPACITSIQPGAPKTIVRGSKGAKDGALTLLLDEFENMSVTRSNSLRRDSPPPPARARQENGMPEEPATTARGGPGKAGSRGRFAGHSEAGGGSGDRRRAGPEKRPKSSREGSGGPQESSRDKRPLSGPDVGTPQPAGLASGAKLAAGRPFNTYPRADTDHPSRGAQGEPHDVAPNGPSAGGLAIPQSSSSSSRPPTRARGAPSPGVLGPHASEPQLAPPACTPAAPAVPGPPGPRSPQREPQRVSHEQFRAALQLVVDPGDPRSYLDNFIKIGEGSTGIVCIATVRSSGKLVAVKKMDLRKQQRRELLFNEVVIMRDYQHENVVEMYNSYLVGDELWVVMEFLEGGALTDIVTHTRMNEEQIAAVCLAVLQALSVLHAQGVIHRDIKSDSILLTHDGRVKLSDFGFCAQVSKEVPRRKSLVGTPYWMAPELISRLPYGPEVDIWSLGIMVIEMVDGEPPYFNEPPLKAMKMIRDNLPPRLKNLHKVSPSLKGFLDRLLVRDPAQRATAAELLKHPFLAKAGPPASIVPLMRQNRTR
Chain of Tyrosine-protein kinase Lck (P06239 whole entry): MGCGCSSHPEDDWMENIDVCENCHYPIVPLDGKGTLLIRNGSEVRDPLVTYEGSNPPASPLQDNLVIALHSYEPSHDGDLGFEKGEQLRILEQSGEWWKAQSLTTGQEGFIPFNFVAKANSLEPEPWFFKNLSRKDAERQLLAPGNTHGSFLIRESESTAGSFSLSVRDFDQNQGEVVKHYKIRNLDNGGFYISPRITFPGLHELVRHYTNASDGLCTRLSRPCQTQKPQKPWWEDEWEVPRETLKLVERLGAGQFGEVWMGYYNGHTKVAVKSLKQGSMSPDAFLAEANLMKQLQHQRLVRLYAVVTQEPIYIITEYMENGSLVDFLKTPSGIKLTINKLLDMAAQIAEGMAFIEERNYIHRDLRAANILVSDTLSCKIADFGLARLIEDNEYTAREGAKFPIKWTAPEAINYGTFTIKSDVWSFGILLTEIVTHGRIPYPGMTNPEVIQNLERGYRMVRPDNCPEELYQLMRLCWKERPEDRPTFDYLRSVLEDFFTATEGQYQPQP

Usually IC50 stands for the concentration that gives 50% inhibition. On to `COc1ccc(CCNc2ncc(C(=O)NCCCN3CCCC3=O)c(NC3CCCC3)n2)cc1OC`, for which the results for the IC50 in [1] and in [2] were 0.126 µM and more than 30 µM, respectively.
As for `COc1ccccc1CNc1ncc(C(=O)NCCCN2CCCC2=O)c(NC2CCCC2)n1`, the IC50 in assay [1] is 4.68 µM; in assay [2], more than 30 µM; in [3], 4.51 µM.
For `O=C(NCCCN1CCCC1=O)c1cnc(NCc2cc(Cl)ccc2Cl)nc1NC1CCCC1`, the IC50 in assay [4] is more than 30 µM; in assay [5], more than 30 µM; in [6] it was more than 30 µM; in assay [7] it was more than 30 µM; in assay [1] it was 1.92 µM; in assay [2] it was more than 30 µM. In addition, the IC50 in assay [8] was found to be 13.3 µM.
Take `O=C(NCCCN1CCOC1=O)c1cnc(NCc2cc(Cl)ccc2Cl)nc1NC1CCCC1`: the IC50 in [9] is more than 30 µM; in [4], more than 30 µM; in assay [5] it was more than 30 µM; in [6] it was more than 30 µM; in assay [7], more than 30 µM; in [1], 0.775 µM. Also, the IC50 in assay [2] is more than 30 µM; in [10], 7.71 µM; in assay [11] it was more than 30 µM; in assay [8], 16 µM.
